{
  "source": "patent US6514946B1",
  "about": "“Macrolide antibiotics and treatment and prophylaxis of pasteurellosis using the same” (Zaidan Hojin Biseibutsu Kagaku Kenkyu Kai, priority 1999, dated 2003)",
  "key": {"[1]": {"tested_on": "Past. multocida BSPO302 No. 6", "test": "Minimum inhibition concentration (MIC), agar double dilution method", "format": "cell-based, Pasteurella multocida", "details": "Pasteurella multocida, BSPO302NO.6; Past. multocida BSPO302 No. 6, strain from a pig; BHI agar; read-out: MIC", "procedure": "(§1) Test 1; Minimum Inhibition Concentration (MIC)\n(§2) MIC was measured, based on the standard method of Japan Society of Chemotherapy, on a BHI agar medium (Brain heart-infusion agar, made by Difco Laboratories Inc.(USA)) with respect to Pasteurella and on a Mueller hinton agar medium (Mueller hinton agar, made by Difco, Laboratories Inc.(USA)) with respect to the other test bacteria in both cases according to the double dilution method."}, "[2]": {"tested_on": "Past. multocida BOPO305 M-17", "test": "Minimum inhibition concentration (MIC), agar double dilution method", "format": "cell-based, Pasteurella multocida", "details": "Pasteurella multocida, BOPO305M17; Past. multocida BOPO305 M-17, strain from a sheep; BHI agar; read-out: MIC", "procedure": "as §1, §2"}, "M. bovirhinis": {"tested_on": "M. bovirhinis", "test": "Bacteria separation test from nasal cavity swab", "format": "in vivo, cattle"}, "Ureaplasma": {"tested_on": "Ureaplasma", "test": "Bacteria separation test from nasal cavity swab", "format": "in vivo, cattle"}, "P. multocida": {"tested_on": "P. multocida", "test": "Bacteria separation test from nasal cavity swab", "format": "in vivo, cattle"}, "[3]": {"details": "before administration (baseline)"}},
  "data": [
    {"molecule": "CC[C@H]1OC(=O)C[C@@H](O)[C@H](C)[C@@H](O[C@@H]2O[C@H](C)C(O)C(N(C)C)C2O)[C@@H](CCN2CC(C)CC(C)C2)C[C@@H](C)C(=O)/C=C/C(C)=C/[C@@H]1CO[C@@H]1OC(C)C(O)[C@@H](OC)C1OC", "note": "(some centres unmarked) [Tilmicosin, tilmicosin]", "values": [
      {"measurement": "MIC", "setting": "[1]", "result": 6.25, "unit": "µg/mL"},
      {"measurement": "MIC", "setting": "[2]", "result": 6.25, "unit": "µg/mL"},
      {"measurement": "Separation rate (%) at completion (number of animal)", "setting": "M. bovirhinis; at completion", "result": "60 (3/5) % (number of animal)"},
      {"measurement": "Separation rate (%) before administration (number of animal)", "setting": "M. bovirhinis; [3]", "result": "60 (3/5) % (number of animal)"},
      {"measurement": "Separation rate (%) at completion (number of animal)", "setting": "Ureaplasma; at completion", "result": "60 (3/5) % (number of animal)"},
      {"measurement": "Separation rate (%) before administration (number of animal)", "setting": "Ureaplasma; [3]", "result": "100 (5/5) % (number of animal)"},
      {"measurement": "Separation rate (%) at completion (number of animal)", "setting": "P. multocida; at completion", "result": "80 (4/5) % (number of animal)"},
      {"measurement": "Separation rate (%) before administration (number of animal)", "setting": "P. multocida; [3]", "result": "100 (5/5) % (number of animal)"}
    ]}
  ]
}
